Molecules are shown by their SMILES.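 Growth conditions: 96-well plates. Treatment: test compound, 48 hours, 5 concentrations. Analysis: linear interpolation between bracketing concentrations; unreached endpoints set to highest concentration. Here, GI50 denotes the concentration required for 50% inhibition of growth.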 Activity calls are given as the source filed them. Cut-off read from the data, not from the text of the source: active = GI50 up to about 1.1 µM and inactive = higher.

The record followed here is ChEMBL document CHEMBL1201862, “PubChem BioAssay data set” (2004).

Test systems include A498; CAKI-1; CCRF-CEM; EKVX; HCT-116; HL-60; Hs-578T; KM12; MCF7; MDA-N; NCI-H226; NCI-H23; OVCAR-3; OVCAR-8; RPMI-8226; SK-MEL-5; SNB-19; SNB-75; SW-620; UACC-62.
Holding throughout (test): NCI-60 cell line screen, 48 h

For the molecule `Clc1nc(Cl)c(-c2ccccc2)c(Cl)n1`, the GI50 was 16.2 µM (inactive) in the experiment on A498; 1.87 µM (inactive) in the experiment on CAKI-1; 2.27 µM (inactive) with CCRF-CEM; 1.8 µM (inactive) in the experiment on EKVX; 1.84 µM (inactive) with HCT-116; 2.15 µM (inactive) in the experiment on HL-60. For the same molecule, the GI50 with Hs-578T is 3.83 µM (inactive); with KM12 it was 4.68 µM (inactive); in the experiment with MCF7 it was 3.04 µM (inactive); in the experiment on MDA-N, 2.49 µM (inactive); in the experiment with NCI-H226 it was 2.3 µM (inactive); in the experiment with NCI-H23 it was 4.51 µM (inactive). Further, the GI50 in the experiment with OVCAR-3 is 3.57 µM (inactive); in the experiment on OVCAR-8, 2.75 µM (inactive); in the experiment with RPMI-8226, 2.69 µM (inactive); in the experiment with SK-MEL-5, 3.18 µM (inactive); in the experiment on SNB-19 it was 14.5 µM (inactive); in the experiment with SNB-75, 0.64 µM (active). Moreover, the GI50 with SW-620 is 2.26 µM (inactive); in the experiment on UACC-62 it was 3.09 µM (inactive).

For the molecule `CC[C@@]1(O)C(=O)OCc2c1c(Cl)c1n(c2=O)Cc2cc3ccccc3nc2-1`, the GI50 in the experiment with A498 was 2.18 µM (inactive); in the experiment with CAKI-1, 0.736 µM (active); in the experiment on CCRF-CEM, 0.372 µM (active); in the experiment with EKVX, 6.1 µM (inactive); in the experiment on HCT-116, 1.36 µM (inactive); in the experiment with HL-60, 2.19 µM (inactive). In addition, the GI50 was 31.4 µM (inactive) in the experiment on Hs-578T; 6.38 µM (inactive) with KM12; 0.708 µM (active) in the experiment with MCF7; 7.24 µM (inactive) with MDA-N; 2.14 µM (inactive) with NCI-H226; 2.05 µM (inactive) with NCI-H23. For the same molecule, the GI50 is 6.35 µM (inactive) in the experiment with OVCAR-3; 3.05 µM (inactive) in the experiment on OVCAR-8; 1.73 µM (inactive) in the experiment on RPMI-8226; 1.75 µM (inactive) in the experiment on SK-MEL-5; 2.36 µM (inactive) with SNB-19; 1.84 µM (inactive) in the experiment on SNB-75. Further, the GI50 is 1.95 µM (inactive) in the experiment on SW-620 and 0.528 µM (active) in the experiment with UACC-62.

For `C=CCN(c1cc(OC)c(NC(C)=O)cc1[N+](=O)[O-])S(C)(=O)=O`, the GI50 in the experiment with A498, in the experiment with CAKI-1, in the experiment on CCRF-CEM, in the experiment with EKVX, in the experiment with HCT-116 and with HL-60 was > 100 µM (inactive) throughout. Further, the GI50 in the experiment with Hs-578T, in the experiment with KM12, with MCF7, in the experiment on MDA-N, with NCI-H226 and with NCI-H23 was > 100 µM (inactive) in each case. The GI50 with OVCAR-3, with OVCAR-8, with RPMI-8226, in the experiment with SK-MEL-5, in the experiment with SNB-19 and with SNB-75 was > 100 µM (inactive) each time. For the same molecule, the GI50 with SW-620 and in the experiment with UACC-62 was > 100 µM (inactive) throughout.

Turning to `O=[N+]([O-])c1ccc(C2CC(c3ccccc3Cl)=Nc3ccccc3[S+]2[O-])cc1` (stereo not given), the GI50 with A498 is 2.34 µM (inactive); in the experiment on CAKI-1, 2.48 µM (inactive); with CCRF-CEM, 1.48 µM (inactive); with EKVX, 15 µM (inactive); with HCT-116, 1.88 µM (inactive); in the experiment on HL-60, 1.19 µM (inactive). The GI50 in the experiment on Hs-578T was 2.75 µM (inactive); with KM12, 3.82 µM (inactive); with MCF7 it was 2.34 µM (inactive); in the experiment with MDA-N, 9.51 µM (inactive); with NCI-H226, 5.86 µM (inactive); in the experiment with NCI-H23, 4.13 µM (inactive). For the same molecule, the GI50 is 3.48 µM (inactive) in the experiment with OVCAR-3; 2.87 µM (inactive) in the experiment with OVCAR-8; 1.77 µM (inactive) with RPMI-8226; 5.41 µM (inactive) in the experiment with SK-MEL-5; 3.63 µM (inactive) in the experiment on SNB-19; 5.55 µM (inactive) with SNB-75. Further, the GI50 in the experiment with SW-620 was 1.98 µM (inactive); in the experiment on UACC-62, 2.69 µM (inactive).

Consider `N#CCC1(c2ccc(Cl)cc2)NC(=O)c2ccccc21` (stereo not given), for which the GI50 in the experiment with A498, in the experiment on CAKI-1, in the experiment with CCRF-CEM, in the experiment on EKVX, with HCT-116 and in the experiment with HL-60 was > 100 µM (inactive) in each case. Moreover, the GI50 in the experiment with Hs-578T, in the experiment on KM12, in the experiment on MCF7, in the experiment with MDA-N, with NCI-H226 and in the experiment with NCI-H23 was > 100 µM (inactive) each time. Besides, the GI50 with OVCAR-3 was > 100 µM (inactive); with OVCAR-8, > 100 µM (inactive); in the experiment with RPMI-8226 it was > 100 µM (inactive); with SK-MEL-5 it was > 100 µM (inactive); in the experiment on SNB-19 it was > 100 µM (inactive); in the experiment with SNB-75 it was 60.8 µM (inactive). The GI50 with SW-620 and with UACC-62 was > 100 µM (inactive) in each case.

Consider `Cn1c2ccccc2c(=O)c2c(O)cc3c(c21)CC(C1(C)CO1)O3` (stereo not given), for which the GI50 is 11.2 µM (inactive) in the experiment with A498; 2.99 µM (inactive) in the experiment with CAKI-1; 0.056 µM (active) with CCRF-CEM; 3.08 µM (inactive) with EKVX; 0.935 µM (active) in the experiment on HCT-116; 0.0495 µM (active) with HL-60. The GI50 was 2 µM (inactive) in the experiment with Hs-578T; 2.41 µM (inactive) in the experiment on KM12; 0.462 µM (active) with MCF7; 1.38 µM (inactive) with MDA-N; 13.3 µM (inactive) in the experiment on NCI-H226; 2.02 µM (inactive) with NCI-H23. In addition, the GI50 in the experiment with OVCAR-3 was 3.61 µM (inactive); in the experiment on OVCAR-8, 0.966 µM (active); in the experiment on RPMI-8226, 2.82 µM (inactive); with SK-MEL-5, 1.79 µM (inactive); with SNB-19, 10.4 µM (inactive); with SNB-75 it was 7.28 µM (inactive). In addition, the GI50 in the experiment on SW-620 was 1.17 µM (inactive); with UACC-62, 2.16 µM (inactive).

For the molecule `CC(C)/C(Cl)=N/OC(=O)Nc1cccc(C(F)(F)F)c1`, the GI50 with A498 was 18.7 µM (inactive); with CAKI-1 it was 1.75 µM (inactive); with CCRF-CEM, 0.532 µM (active); in the experiment on EKVX it was 2.61 µM (inactive); in the experiment on HCT-116 it was 8.2 µM (inactive); in the experiment with HL-60, 0.778 µM (active). For the same molecule, the GI50 in the experiment with Hs-578T was 9.55 µM (inactive); in the experiment with KM12, 15.3 µM (inactive); in the experiment on MCF7, 5.35 µM (inactive); in the experiment with MDA-N, 10.6 µM (inactive); with NCI-H226, 12.5 µM (inactive); with NCI-H23, 14.5 µM (inactive). Moreover, the GI50 was 3.84 µM (inactive) with OVCAR-3; 14.5 µM (inactive) with OVCAR-8; 1.56 µM (inactive) in the experiment with RPMI-8226; 8.05 µM (inactive) in the experiment with SK-MEL-5; 19 µM (inactive) in the experiment with SNB-19; 5.04 µM (inactive) in the experiment with SNB-75. In addition, the GI50 with SW-620 is 1.35 µM (inactive); with UACC-62, 13.6 µM (inactive).
